Measurements taken from patent publication US9388313B2, “Water-insoluble coloring compound, ink, thermal transfer recording sheet, and color filter resist composition” (CANON KABUSHIKI KAISHA, priority 2012, dated 2016).
Like-named read-outs stand apart in the source and are kept apart here.

How the values were obtained:
[1] = Visual investigation of color filters; conditions: cyclohexanone-based resist composition
Protocol: Color filter resist composition (1) of the present invention was prepared by slowly adding 22 parts of Ink (A) to a solution of 6.7 parts of an acrylic copolymer composition (weight average molecular weight Mw: 10000) composed of 40% by mass of n-butyl methacrylate, 30% by mass of acrylic acid, and 30% by mass of hydroxyethyl methacrylate in monomer ratios, 1.3 parts of dipentaerythritol pentaacrylate, and 0.4 parts of 2-benzyl-2-dimethylamino-1-(4-morpholinophenyl)-butanone (photopolymerization initiator) in 96 parts of cyclohexanone, stirring the mixture at room temperature for 3 hours, and filtering the reaction solution through a filter of 1.5 μm pore size.
Color filter (1) was produced by spin-coating color filter resist composition (1) on a glass substrate and then drying at 90° C. for 3 min, exposure of the entire surface to light, and post-curing at 180° C.

[2] = Evaluation of solvent solubility of water-insoluble coloring compound (visual); type: physicochemical; conditions: organic solvent or mixture, thermodynamic from solid, room temperature
Protocol: The solvent solubilities of Compounds (1), (4), (11), (18), (23), (26), and (28) as the water-insoluble coloring compounds and Comparative Compounds (1) and (2) were evaluated by dissolving 30 mg of each compound in 0.7 mL of each solvent, toluene, methanol, ethyl acetate, or chloroform, at room temperature, and visually observing each solution according to the following evaluation criteria:
B: suspended material slightly remained, and […]

[3] = 30 mg in 0.7 mL chloroform, read-out: Solubility Chloroform
[4] = 30 mg in 0.7 mL ethyl acetate, read-out: Solubility Ethyl acetate
[5] = 30 mg in 0.7 mL methanol, read-out: Solubility Methanol
[6] = 30 mg in 0.7 mL toluene, read-out: Solubility Toluene

Row | solvent solubility (demonstrated by spin-coating uniformity) [1] | solubility [2, 3] | solubility [2, 4] | solubility [2, 5] | solubility [2, 6] | Compound
1 | high solvent solubilities | > 42.9 mg/mL | > 42.9 mg/mL | > 42.9 mg/mL | > 42.9 mg/mL | CCCCC(CC)CN(CC(CC)CCCC)C(=O)c1cccc(/N=N/c2c(O)[nH]c(=O)c(C(=O)OCC)c2C)c1 (centres unmarked) [Compound 11]
2 | poor solvent solubilities | < 42.9 mg/mL | < 42.9 mg/mL | < 42.9 mg/mL | < 42.9 mg/mL | CCCCC(CC)CN(CC(CC)CCCC)C(=O)c1ccc(/N=N/c2c(O)[nH]c(=O)c(C#N)c2C)cc1 (centres unmarked) [compound 2, reference compound]
3 | high solvent solubilities | > 42.9 mg/mL | > 42.9 mg/mL | > 42.9 mg/mL | > 42.9 mg/mL | CCCCC(CC)CN(CC(CC)CCCC)C(=O)c1ccc(/N=N/c2c(O)[nH]c(=O)c(C(=O)OCC)c2C)cc1 (centres unmarked) [Compound 18]
4 | – | > 42.9 mg/mL | > 42.9 mg/mL | > 42.9 mg/mL | > 42.9 mg/mL | CCOC(=O)c1c(C)c(/N=N/c2ccccc2C(=O)N(C2CCCCC2)C2CCCCC2)c(O)[nH]c1=O [Compound 28]
5 | – | > 42.9 mg/mL | > 42.9 mg/mL | > 42.9 mg/mL | > 42.9 mg/mL | CCCCCc1c(/N=N/c2ccccc2C(=O)N(CC(CC)CCCC)CC(CC)CCCC)c(O)[nH]c(=O)c1C(=O)N1CCCCC1 (centres unmarked) [Compound 26]
6 | – | > 42.9 mg/mL | > 42.9 mg/mL | > 42.9 mg/mL | > 42.9 mg/mL | CCCCC(CC)CN(CC(CC)CCCC)C(=O)c1ccccc1/N=N/c1c(O)[nH]c(=O)c(C(=O)NC(C)(C)C)c1C (centres unmarked) [Compound 23]
7 | poor solvent solubilities | < 42.9 mg/mL | < 42.9 mg/mL | < 42.9 mg/mL | < 42.9 mg/mL | CCCCC(CC)CN(CC(CC)CCCC)S(=O)(=O)c1ccc(/N=N/c2c(O)[nH]c(=O)c(C#N)c2C)cc1 (centres unmarked) [compound 1, reference compound]
8 | – | > 42.9 mg/mL | > 42.9 mg/mL | > 42.9 mg/mL | > 42.9 mg/mL | CCCCC(CC)CN(CC(CC)CCCC)S(=O)(=O)c1ccccc1/N=N/c1c(O)[nH]c(=O)c(C(=O)OCC)c1C (centres unmarked) [Compound 4]
9 | high solvent solubilities | > 42.9 mg/mL | > 42.9 mg/mL | > 42.9 mg/mL | > 42.9 mg/mL | CCCCC(CC)CN(CC(CC)CCCC)C(=O)c1ccccc1/N=N/c1c(O)[nH]c(=O)c(C(=O)OCC)c1C (centres unmarked) [Compound 1]
